Source: patent US11980774B2, “Illumination devices and related methods for phototherapeutic light treatments in the presence of vitamins” (priority 2021, dated 2024)

Test system: South African variant of SARS-CoV-2 (SARS-CoV-2 SA)
Type: cell-based
Conditions: 10 μM RFN, no ascorbate; 425 nm light 7.5 J/cm^2; FIG. 3B

## Cc1cc2nc3c(=O)[nH]c(=O)nc-3n(C[C@H](O)[C@H](O)[C@H](O)CO)c2cc1C [riboflavin]
  fold reduction in viral loads of SARS-CoV-2 SA: 642 fold
  reduction in viral loads of SARS-CoV-2 SA: ~99.8%
  reductions in viral loads of SARS-CoV-2 SA: significant reductions
